Measured values: patent publication US6906205B2, “Spiro and dispiro 1,2,4-trioxolane antimalarials” (Medicines for Malaria Venture MMV, priority 2002, dated 2005)

Assays:
[1] = tested on: ANKA strain of Plasmodium berghei; assay: single dose ED50/ED90/ED99 determinations in infected mice; type: in vivo
Outline: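 Mice (Moro SPF or NMRI, n=3 per group) infected with P. berghei ANKA received a single dose on day 1 post-infection, vehicle 0.5% CMC/0.5% benzyl alcohol/0.4% Tween 80/0.9% NaCl in water. Read-out is percent reduction in parasitemia on day 3; ED values by nonlinear fitting.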

[2] = tested on: ANKA strain of P. berghei; assay: single dose STI in vivo screen in infected mice; design: species or system Plasmodium berghei; conditions: for Activity (%) 3 mg/kg SSV po: single 3 mg/kg po in SSV; for Activity (%) 10 mg/kg SSV po / Survival (days) 10 mg/kg SSV po: single 10 mg/kg po in SSV
Outline: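 Groups of 3-5 Moro SPF or NMRI mice infected with the ANKA strain of P. berghei received a single dose of trioxolane on day one post-infection. The compound was given in 3% ethanol and 7% Tween 80 or in SSV (0.5% w/v CMC, 0.5% v/v benzyl alcohol, 0.4% v/v Tween 80, 0.9% w/v sodium chloride in water). Antimalarial activity was scored as percent reduction in parasitemia on day three and as survival time versus untreated controls. Survival to day 30 counted as cure.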

[3] = tested on: Schistosoma mansoni adult schistosomes (49-day-old); assay: effect on adult schistosomes (49-day-old) in mice; type: in vivo; conditions: for % reduction of adult worms growth at day 49 after per os application of 400 mg/kg, TWR (%) / adult worms at day 49, per os 400 mg/kg, DEAD WORM (%): single 400 mg/kg per os; for % reduction of adult worms growth at day 49 after per os application of 600 mg/kg, TWR (%) / adult worms at day 49, per os 600 mg/kg, DEAD WORM (%): single 600 mg/kg per os
Experimental: Mice were infected with 100 Schistosoma mansoni cercariae […]. Each group was treated per os with OZ compounds at single doses of 200, 400, and 600 mg/kg. […] All groups were killed 4 weeks after treatment and the liver and intestine were removed and separated. The liver and intestine were compressed and alive male and female worms could be seen and counted.

[4] = tested on: Schistosoma mansoni 21-day-old schistosomules; assay: effect on 21-day-old schistosomules in mice; type: in vivo; conditions: single 200 mg/kg per os, female mice
Experimental: All groups were killed 4 weeks after treatment and the liver and intestine were removed and separated. The liver and intestine were compressed and alive male and female worms could be seen and counted. The effect of the compounds was evaluated by mean total and female worm burden.

[5] = tested on: parasitemia (malaria infection); assay: onset of action and recrudescence experiments; type: in vivo; conditions: single 100 mg/kg po (SSV) on day +3 post-infection; recrudescence = >5% parasitemia; followed up to 60 days; (n/5) = animals
Experimental: The onset of drug action was determined after a single fixed dose of 100 mg/kg (SSV vehicle) po to groups of five animals on day +3 post-infection (day 0).

dosing in dogs = type: in vivo; conditions: dog
Text: (§1) Artesunate is listed as a reference compound.

dosing in rats = type: in vivo; conditions: rat
Text: as §1

[6] = tested on: Schistosoma mansoni adult schistosomes (49-day-old); assay: effect on adult schistosomes (49-day-old) in mice; type: in vivo; conditions: 1 × 600 mg/kg sc.
[7] = tested on: P. falciparum K1 strain (Thailand resistant to chloroquine); assay: semiautomated microdilution assay, [3H]-hypoxanthine incorporation, K1 strain; type: cell-based, Plasmodium falciparum; conditions: K1 strain, 72 h incubation
Outline: (§2)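 Asynchronous stock cultures → intraerythrocytic forms; semiautomated microdilution; IC50 by logit regression.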

Schistosoma japonicum = assay: effect in mice infected with Schistosoma japonicum; type: in vivo; conditions: for MFWB/x ± SD (mean female worm burden): control 11.6 ± 2.4; for MTWB/x ± SD (mean total worm burden): control 26.6 ± 4.2
[8] = tested on: P. falciparum NF54 strain (sensitive to standard antimalarials); assay: semiautomated microdilution assay, [3H]-hypoxanthine incorporation, NF54 strain; type: cell-based, Plasmodium falciparum; conditions: NF54 strain, 72 h incubation
Outline: as §2

P. berghei ANKA strain [9] = assay: treatment: 3x10 mg/kg p.o. divided dose vs 1x30 mg/kg po single dose in infected mice; type: in vivo, Plasmodium berghei; conditions: for Activity (%) p.o. SSV: percent reduction of parasitemia day 4
Experimental: Moro NMRI male mice (Fü Albino specific pathogen free) weighing 18±2 g were infected intravenously (i.v.) with 2×10^7 P. berghei ANKA strain-infected erythrocytes from donor mice on day 0 of the experiment. From donor mice with circa 30% parasitemia, heparinized blood was taken and diluted in physiological saline to 10^8 parasitized erythrocytes per ml. An aliquot (0.2 ml) of this suspension was injected i.v. into experimental and control groups of mice. […] Throughout the experiments, mice were kept in groups of three or five animals in Makrolon type II cages in an air-conditioned animal room at 22 to 23° C.
They were administered per os (p.o.) in a total volume of 0.01 ml per gram of mouse. The activity of the compound was determined by a variety of methods outlined in subsequent sections. Survival time was also recorded, and survival to day 30 post-infection was considered to be a cure.
The first experiment conducted consisted of administration of a divided 3×10 mg/kg p.o. dose administered on days 1, 2, and 3 post-infection vs. a single 1×30 mg/kg po dose administered on day 1 post-infection. On day 4 post-infection, blood smears of all animals were prepared and stained with Giemsa. […] Compounds were administered orally in the SSV vehicle.

P. berghei ANKA strain [10] = assay: prophylactic activity, single 100 mg/kg po dose before infection; type: in vivo, Plasmodium berghei; conditions: reduction of parasitemia day 3 post-infection
Experimental: Moro NMRI male mice (Fü Albino specific pathogen free) weighing 18±2 g were infected intravenously (i.v.) with 2×10^7 P. berghei ANKA strain-infected erythrocytes from donor mice on day 0 of the experiment. From donor mice with circa 30% parasitemia, heparinized blood was taken and diluted in physiological saline to 10^8 parasitized erythrocytes per ml. An aliquot (0.2 ml) of this suspension was injected i.v. into experimental and control groups of mice. In untreated control mice, parasitemia rose regularly to 40 to 50% by day 3 post-infection and 70 to 80% by day 4 post-infection. The mice died between days 5 and 7 post-infection. Throughout the experiments, mice were kept in groups of three or five animals in Makrolon type II cages in an air-conditioned animal room at 22 to 23° C. A diet with p-aminobenzoic acid (PABA) of 45 mg (NAFAG FUTTER© food N^o 9009 PAB-45) per kg of body weight, and tap water is available ad libitum.
OZ compounds were prepared at an appropriate concentration, either as a solution or a suspension containing SSV (0.5% w/v CMC, 0.5% v/v benzyl alcohol, 0.4% v/v Tween 80, and 0.9% w/v sodium chloride in water). They were administered per os (p.o.) in a total volume of 0.01 ml per gram of mouse. The activity of the compound was determined by a variety of methods outlined in subsequent sections. Survival time was also recorded, and survival to day 30 post-infection was considered to be a cure.
Prophylactic activities of the compounds were compared after administering po single dose of 100 mg/kg to different groups of five animals at various times before infection. All groups including an untreated control group, were then infected at the same time. Parasitemia was determined for each animal on day 3 post-infection, and percent of reduction of the level of parasitemia compared to levels for animals given no drug is determined.

P. berghei ANKA strain [11] = assay: treatment: 3x3 mg/kg and 3x1 mg/kg po divided doses in infected mice; type: in vivo, Plasmodium berghei; conditions: for Activity (%) p.o. SSV: percent reduction of parasitemia day 4
Outline: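 NMRI mice infected i.v. with 2×10^7 P. berghei ANKA-parasitized erythrocytes on day 0, then dosed orally in SSV vehicle at 3×3 or 3×1 mg/kg on days 1–3. Day-4 Giemsa smears gave percent parasitemia reduction versus untreated controls; survival to day 30 counted as cure.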

[12] = single dose po in SSV, mice, percent reduction in parasitemia on day three post-infection
[13] = percent reduction in parasitemia day 3 post-infection
[14] = age of worm 7 days, 200 mg/kg x 1
[15] = age of worm 35 days, 200 mg/kg x 1
[16] = age of worm 35 days, 400 mg/kg x 1
[17] = 3 × 10 mg/kg days 1, 2, 3 post-infection
[18] = 3 × 1 mg/kg days 1, 2, 3 post-infection
[19] = 3 × 3 mg/kg days 1, 2, 3 post-infection

## CC(C)(N)CNC(=O)C[C@H]1CC[C@]2(CC1)OO[C@]1(O2)C2CC3CC(C2)CC1C3 [OZ277]
[1]; [12]
  ED50: 0.78 mg/kg
  ED90: 2.0 mg/kg
  ED99: 4.4 mg/kg
[2]; [13]
  Activity (%) 3 mg/kg SSV po: 99.28%
  Activity (%) 10 mg/kg SSV po: 99.98%
[2]
  Survival (days) 10 mg/kg SSV po: 9.3 days
[3]
  % reduction of adult worms growth at day 49 after per os application of 400 mg/kg, TWR (%): 0/0%
  adult worms at day 49, per os 400 mg/kg, DEAD WORM (%): 0/0%
  % reduction of adult worms growth at day 49 after per os application of 600 mg/kg, TWR (%): 17%
  adult worms at day 49, per os 600 mg/kg, DEAD WORM (%): 14%
[4]
  % reduction of schistosomule growth at day 21 after per os application of 200 mg/kg, FWR (%): 92%
  % reduction of schistosomule growth at day 21 after per os application of 200 mg/kg, TWR (%): 91%
[5]
  Time of Recrudescence: 13.0 days
Dosing in dogs; IV 10 mg/kg
  IV t1/2 (10 mg/kg): 1.58 h
Dosing in dogs; oral 10 mg/kg
  Oral t1/2 (10 mg/kg): 2.468 h
Dosing in dogs; oral 10 mg/kg, OZ 279, OZ 256, OZ 209 values flagged (V)
  Oral Bioavailability 10 mg/kg: 87.9%
Dosing in dogs; oral 25 mg/kg, OZ 279, OZ 256, OZ 209 values flagged (V)
  Oral Bioavailability 25 mg/kg: 96.1%
Dosing in rats; IV 10 mg/kg
  IV t1/2 (10 mg/kg): 1.29 h
Dosing in rats; oral 10 mg/kg
  Oral Bioavailability 10 mg/kg: 36.9%
Dosing in rats; oral 25 mg/kg
  Oral Bioavailability 25 mg/kg: 44.1%
  Oral t1/2 (25 mg/kg): 1.51 h
[6]
  % reduction of adult worms growth, 1 × 600 sc., TWR (%): 39%
  adult worms, 1 × 600 sc., DEAD WORM (%): 17%

## Cc1ccc(S(=O)(=O)O)cc1.NC[C@H]1CC[C@]2(CC1)OOC1(O2)C2CC3CC(C2)CC1C3 (some centres unmarked) [OZ207]
[7]
  IC50 (ng/ml) K1: 0.33 ng/mL
[1]; [12]
  ED50: 0.37 mg/kg
  ED90: 1.2 mg/kg
  ED99: 3.0 mg/kg
[2]; percent reduction in parasitemia day 3 post-infection, single 10 mg/kg po in 3% ethanol and 7% Tween 80, mice
  Activity (%) po: 99.96%
[2]; percent reduction in parasitemia day 3 post-infection, single 10 mg/kg sc in 3% ethanol and 7% Tween 80, mice
  Activity (%) sc: 99.98%
[2]; percent reduction in parasitemia day 3 post-infection, single po dose in standard suspending vehicle (SSV), mice
  Activity (%) SSVpo: 99.98%
[2]; single 10 mg/kg po in 3% ethanol and 7% Tween 80, untreated control 5.6 ± 0.3
  Survival (days) po: 9.3 days
[2]; single 10 mg/kg sc in 3% ethanol and 7% Tween 80, untreated control 5.6 ± 0.3
  Survival (days) sc: 11.3 days
[2]; single po dose in SSV, untreated control 5.6 ± 0.3
  Survival (days) SSVpo: 12.0 days
[3]; 600 mg/kg per os, infected mice
  Tox (mice): Tox: ++2/5
[3]; single 200 mg/kg per os
  % reduction of adult worms growth at day 49 after per os application of 200 mg/kg, TWR (%): 32%
  adult worms at day 49, per os 200 mg/kg, DEAD WORM (%): 17%
[3]
  % reduction of adult worms growth at day 49 after per os application of 400 mg/kg, TWR (%): 35%
  adult worms at day 49, per os 400 mg/kg, DEAD WORM (%): 21%
  % reduction of adult worms growth at day 49 after per os application of 600 mg/kg, TWR (%): 11%
  adult worms at day 49, per os 600 mg/kg, DEAD WORM (%): 24%
[5]
  Time of Recrudescence (days): no recrudescence
Schistosoma japonicum; [14]
  Mice without ♀ worm: 0/8
  MFWB/x ± SD (mean female worm burden): 2.1 ± 1.0
  MTWB/x ± SD (mean total worm burden): 5.4 ± 2.4
Schistosoma japonicum; [15]
  FWRR/% (female worm reduction rate): 95%
  Mice without ♀ worm: 4/7
  WRR/% (worm reduction rate): 66%
  MFWB/x ± SD (mean female worm burden): 0.6 ± 0.7
  MTWB/x ± SD (mean total worm burden): 9.1 ± 3.9
Schistosoma japonicum; [16]
  FWRR/% (female worm reduction rate): 94%
  Mice without ♀ worm: 4/6
  MFWB/x ± SD (mean female worm burden): 0.7 ± 1.2
  MTWB/x ± SD (mean total worm burden): 4.3 ± 1.2
[8]
  IC50 (ng/ml) NF54: 0.57 ng/mL

## C[C@H]1[C@H](OC(=O)CCC(=O)O)O[C@@H]2O[C@@]3(C)CC[C@H]4[C@H](C)CC[C@@H]1[C@@]24OO3 [AS, artesunate, reference compound]
P. berghei ANKA strain [9]; 1 × 30 mg/kg single dose day 1 post-infection
  Activity (%) p.o. SSV: 83.83%
P. berghei ANKA strain [9]; [17]
  Survival (days) p.o. SSV: 11 days
  Activity (%) p.o. SSV: 98.62%
P. berghei ANKA strain [9]; 3 × 10 mg/kg, survival to day 30 post-infection = cure, cured/treated mice
  Cures: 0/5
P. berghei ANKA strain [10]; single 100 mg/kg po 24 h before infection
  Prophylactic Activity (%): 6.28%
P. berghei ANKA strain [10]; single 100 mg/kg po at 0 h
  Prophylactic Activity (%): 92.44%
[1]; Plasmodium berghei, po
  ED50: 4.7 mg/kg
[1]; [12]
  ED90: 19 mg/kg
  ED99: 60 mg/kg
[2]; [13]
  Activity (%) 3 mg/kg SSV po: 66%
  Activity (%) 10 mg/kg SSV po: 87%
[2]
  Survival (days) 10 mg/kg SSV po: 7.0 days
[5]
  Time of Recrudescence: 8.6 days
P. berghei ANKA strain [11]; [18]
  Survival (days) p.o. SSV: 6.8 days
  Activity (%) p.o. SSV: 39%
P. berghei ANKA strain [11]; [19]
  Survival (days) p.o. SSV: 9.4 days
  Activity (%) p.o. SSV: 78%
